According to US11845760B2, “PRMT5 inhibitors” (AMGEN INC., priority 2020, dated 2023):
pIC50: −log10 of the molar value. Like-named read-outs stand apart in the source and are kept apart here.

Assays:
[1] = system: HCT116 WT cells; assay: HCT116 WT cell line proliferation (CellTiter-Glo cell viability, 6 days); format: cell-based; conditions: HCT116 WT (parent) cells, 6 days of treatment, CellTiter-Glo cell viability, read-out: HCT-116 WT IC50
Procedure, shortened: (§1)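 Viability by CellTiter-Glo after 6 days' drug exposure in wild-type HCT116 and its MTAP-null knockout, with DMSO-only control. Dosing used either 1:3 steps (top 1 or 10 μM) or 22 points in 1:2 steps (top 10 or 50 μM). IC50 taken where the fitted curve crosses 50% of control.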

[2] = system: HCT116 MTAP null cells; assay: HCT116 MTAP null cell line proliferation (CellTiter-Glo cell viability, 6 days); format: cell-based; conditions: HCT116 MTAP null cells, 6 days of treatment, CellTiter-Glo cell viability, read-out: HCT-116 MTAP null IC50
Procedure, shortened: as §1

Row | SMILES | pIC50 ([1]; Homo sapiens, HCT-116, 144 h) | pIC50 ([2]; HCT116-MTAP null, 144 h) | pIC50 [1] | pIC50 [2]
1 | C[C@H]1OCc2c1c(N)nc1ccc(C(=O)N3CC[C@](O)(c4ccc(C(F)(F)F)cc4)C3)cc21 [Example 435, ((3R)-4-amino-3-methyl-1,3-dihydrofuro[3,4-c]quinolin-8-yl)((3S)-3-hydroxy-3-(4-(trifluoromethyl)phenyl)-1-pyrrolidinyl)methanone] | 5.42 | 6.60 |  | 
2 | Nc1nc2cnc(C(=O)N3CCOC[C@@H]3c3ccc(S(F)(F)(F)(F)F)cc3)cc2c2c1COC2 (single isomer, unassigned) [Example 458] | 6.34 | 7.74 |  | 
3 | Nc1nc2ccc(C(=O)N3CCOC[C@@H]3c3ccc(C(F)(F)C(F)(F)F)cc3)cc2c2c1COC2 [Example 510, (4-amino-1,3-dihydrofuro[3,4-c]quinolin-8-yl)((3S)-3-(4-(pentafluoroethyl)phenyl)-4-morpholinyl)methanone] | 5.80 | 7.37 |  | 
4 | Cn1ncc2c(N)nc3cc(F)c(C(=O)N4CC[C@@H](Oc5ccc(C(F)(F)F)cc5)C4)cc3c21 (single isomer, unassigned) [Example 471] | 5.22 | 6.55 |  | 
5 | C[C@@H]1COC[C@H](c2ccc(OC(F)(F)F)cc2)N1C(=O)c1ccc2nc(N)c3c(c2c1)COC3 (single isomer, unassigned) [Example 588] | 6.33 | 7.85 |  | 
6 | Cc1ccc([C@@H]2COCCN2C(=O)c2cc3c4c(c(N)nc3cn2)COC4)cn1 (single isomer, unassigned) [Example 608] | < 5.00 | < 6.00 |  | 
7 | C[C@@H]1COC[C@H](c2ccc(OCCC(F)(F)F)nn2)N1C(=O)c1cc2c3c(c(N)nc2cn1)COC3 [Example 564, (4-amino-1,3-dihydrofuro[3,4-c][1,7]naphthyridin-8-yl)((3R,5S)-3-methyl-5-(6-(3,3,3-trifluoropropoxy)-3-pyridazinyl)-4-morpholinyl)methanone] | 6.15 | 7.55 |  | 
8 | C[C@@H]1COC[C@H](c2ccc(OC(F)(F)F)cc2)N1C(=O)c1cc2c(cc1F)nc(N)c1c2cnn1C [Example 532, (4-amino-7-fluoro-3-methyl-3H-pyrazolo[3,4-c]quinolin-8-yl)((3R,5S)-3-methyl-5-(4-(trifluoromethoxy)phenyl)-4-morpholinyl)methanone] | 6.40 | 7.72 |  | 
9 | Cn1ncc2c(N)nc3ccc(C(=O)N4CC(c5ccc(C(F)(F)F)cc5)C4)cc3c21 [Example 408, (4-amino-1-methyl-1H-pyrazolo[4,3-c]quinolin-8-yl)(3-(4-(trifluoromethyl)phenyl)-1-azetidinyl)methanone] | 5.20 | 6.93 |  | 
10 | C[C@H]1OCc2c1c(N)nc1cnc(C(=O)N3CCOC[C@@H]3c3ccc(C(F)(F)F)cc3)cc21 (single isomer, unassigned) [Example 452] | 5.46 | 7.31 |  | 
11 | CC1OCc2c1c(N)nc1cnc(C(=O)N3C(C)COCC3c3ccc(OC(F)F)nn3)cc21 (mixture of isomers) [Example 316, ((3R)-4-amino-3-methyl-1,3-dihydrofuro[3,4-c][1,7]naphthyridin-8-yl)((3R,5S)-3-(6-(difluoromethoxy)-3-pyridazinyl)-5-methyl-4-morpholinyl)methanone and ((3R)-4-amino-3-methyl-1,3-dihydrofuro[3,4-c][1,7]naphthyridin-8-yl)((3S,5R)-3-(6-(difluoromethoxy)-3-pyridazinyl)-5-methyl-4-morpholinyl)methanone] |  |  | 5.95 | 7.46
12 | COc1ccc([C@H]2COC[C@@H](C)N2C(=O)c2ccc3nc(N)c4c(cnn4C)c3c2)nn1 [Example 538, (4-amino-3-methyl-3H-pyrazolo[3,4-c]quinolin-8-yl)((3S,5R)-3-(6-methoxy-3-pyridazinyl)-5-methyl-4-morpholinyl)methanone] | 4.88 | 6.55 |  | 
13 | Nc1nc2cnc(C(=O)N3CCOC[C@H]3c3ccc(C(F)(F)F)s3)cc2c2c1COC2 (single isomer, unassigned) [Example 616] | < 5.00 | 5.49 |  | 

The next lines start with the values.

Row | pIC50 ([1]; Homo sapiens, HCT-116, 144 h) | pIC50 ([2]; HCT116-MTAP null, 144 h) | pIC50 [1] | pIC50 [2] | SMILES
14 |  |  | 5.74 | 7.25 | CC(C)(C)OC(=O)N1CCN(C(=O)c2cc3c4c(c(N)nc3cn2)COC4)[C@H](c2ccc(C(F)(F)F)cc2)C1 (single isomer, unassigned) [Example 590]
15 | 5.43 | 7.00 |  |  | CCOc1ccc([C@@H]2COC[C@H](C)N2C(=O)c2cc3c4c(c(N)nc3cn2)COC4)nn1 (racemic) [Example 320, (4-amino-1,3-dihydrofuro[3,4-c][1,7]naphthyridin-8-yl)((3R,5S)-3-(6-ethoxy-3-pyridazinyl)-5-methyl-4-morpholinyl)methanone and (4-amino-1,3-dihydrofuro[3,4-c][1,7]naphthyridin-8-yl)((3S,5R)-3-(6-ethoxy-3-pyridazinyl)-5-methyl-4-morpholinyl)methanone]
16 | < 5.00 | < 6.00 |  |  | C[C@@H]1OCc2c1c(N)nc1ccc(C(=O)N3CCOC[C@@H]3c3ccc(OC(F)(F)F)cc3)cc21 (single isomer, unassigned) [Example 569]
17 | 5.48 | 7.14 |  |  | Cc1nc2nc(N)c3cnn(C)c3c2cc1C(=O)N1CCOC[C@@H]1c1ccc(C(F)(F)F)cc1 [Example 415, (4-amino-1,7-dimethyl-1H-pyrazolo[4,3-c][1,8]naphthyridin-8-yl)((3S)-3-(4-(trifluoromethyl)phenyl)-4-morpholinyl)methanone]
18 | 6.24 | 7.72 |  |  | COc1ccc([C@H]2COC[C@@H](C)N2C(=O)c2cc3c4c(c(N)nc3cc2F)COC4)nn1 [Example 540, (4-amino-7-fluoro-1,3-dihydrofuro[3,4-c]quinolin-8-yl)((3S,5R)-3-(6-methoxy-3-pyridazinyl)-5-methyl-4-morpholinyl)methanone]
19 | 4.94 | 6.09 |  |  | Nc1nc2ccc(C(=O)N3CCOC[C@@H]3c3ccc(C(F)(F)F)cc3)cc2c2cncnc12 [Example 502, (5-aminopyrimido[4,5-c]quinolin-9-yl)((3S)-3-(4-(trifluoromethyl)phenyl)-4-morpholinyl)methanone]
20 | 5.27 | 7.25 |  |  | Cn1ncc2c(N)nc3cc(F)c(C(=O)N4CCC(c5ccc(C(F)(F)F)cn5)C4)cc3c21 (racemic) [Example 541, (4-amino-7-fluoro-1-methyl-1H-pyrazolo[4,3-c]quinolin-8-yl)((3R)-3-(5-(trifluoromethyl)-2-pyridinyl)-1-pyrrolidinyl)methanone and (4-amino-7-fluoro-1-methyl-1H-pyrazolo[4,3-c]quinolin-8-yl)((3S)-3-(5-(trifluoromethyl)-2-pyridinyl)-1-pyrrolidinyl)methanone]
21 | 4.43 | 6.38 |  |  | Nc1nc2cc(F)c(C(=O)N3CC[C@H](c4ccc(C(F)(F)F)cc4)C3)cc2c2c1COC2 (single isomer, unassigned) [Example 468]
22 | 5.36 | 6.76 |  |  | Cn1ncc2c(N)nc3cc(F)c(C(=O)N4C[C@H]5C[C@@]5(c5ccc(C(F)(F)F)cc5)C4)cc3c21 (single isomer, unassigned) [Example 621]
23 | < 5.00 | 6.31 |  |  | C[C@H]1OCc2c1c(N)nc1ccc(C(=O)N3CCOC[C@@H]3c3ccnc(C(F)(F)F)c3)cc21 (racemic) [Example 354, ((3R)-4-amino-3-methyl-1,3-dihydrofuro[3,4-c]quinolin-8-yl)((3R)-3-(2-(trifluoromethyl)-4-pyridinyl)-4-morpholinyl)methanone and ((3R)-4-amino-3-methyl-1,3-dihydrofuro[3,4-c]quinolin-8-yl)((3S)-3-(2-(trifluoromethyl)-4-pyridinyl)-4-morpholinyl)methanone]
24 | 6.06 | 7.48 |  |  | C[C@H]1OCc2c1c(N)nc1ccc(C(=O)N3CCOC[C@@H]3c3ccc(S(F)(F)(F)(F)F)cc3)cc21 [Example 416, ((3R)-4-amino-3-methyl-1,3-dihydrofuro[3,4-c]quinolin-8-yl)((3S)-3-(4-(pentafluoro-lambda~6~-sulfanyl)phenyl)-4-morpholinyl)methanone]
25 | 5.00 | 6.83 |  |  | Nc1nc2cnc(C(=O)N3CCOC[C@@H]3c3c(F)cc(Br)cc3F)cc2c2c1COC2 (single isomer, unassigned) [Example 602]
26 | 6.22 | 7.89 |  |  | Cn1ncc2c(N)nc3ccc(C(=O)N4CCOC[C@@H]4c4ccc(S(F)(F)(F)(F)F)cc4)cc3c21 [Example 447, (4-amino-1-methyl-1H-pyrazolo [4,3-c]quinolin-8-yl)((3S)-3-(4-(pentafluoro-lambda~6~-sulfanyl)phenyl)-4-morpholinyl)methanone]
27 | 5.11 | 6.35 |  |  | C[C@H]1OCc2c1c(N)nc1ccc(C(=O)N3CCOC[C@H]3c3ccc(F)c(OC(F)(F)F)c3)cc21 (racemic) [Example 373, ((3R)-4-amino-3-methyl-1,3-dihydrofuro[3,4-c]quinolin-8-yl)((3R)-3-(4-fluoro-3-(trifluoromethoxy)phenyl)-4-morpholinyl)methanone and ((3R)-4-amino-3-methyl-1,3-dihydrofuro[3,4-c]quinolin-8-yl)((3S)-3-(4-fluoro-3-(trifluoromethoxy)phenyl)-4-morpholinyl)methanone]
